# Experimental data: paper PMC5617771 (Bioorganic & medicinal chemistry, 2017)
# How the values were obtained:
# HIV-1 LAI = assay: Antiviral activity in MT-2 cells exposed to HIV-1 LAI; type: cell-based; conditions: for fold improvement in antiviral assay with respect to 3b: relative to 3b
# HIV-1 protease = HIV-1 protease (Human immunodeficiency virus type 1 group M subtype B, UniProt P04585); assay: HIV-1 protease enzyme inhibition; type: biochemical
compound,measurement,setting,value
"COc1ccc(S(=O)(=O)N(CC(C)C)C[C@@H](O)[C@H](Cc2ccccc2)NC(=O)c2cccc(C(=O)N(C)Cc3coc(C)n3)c2)cc1 [Inhibitor 3c, N^1-((2S,3R)-3-hydroxy-4-((N-isobutyl-4-methoxyphenyl)sulfonamido)-1-phenylbutan-2-yl)-N^3-methyl-N^3-((2-methyloxazol-4-yl)methyl)isophthalamide]",fold improvement in antiviral assay with respect to 3b,HIV-1 LAI,over 20 fold
"COc1ccc(S(=O)(=O)N(CC(C)C)C[C@@H](O)[C@H](Cc2ccccc2)NC(=O)c2cccc(C(=O)N(C)Cc3csc(C)n3)c2)cc1 [Inhibitor 3d, N^1-((2S,3R)-3-hydroxy-4-((N-isobutyl-4-methoxyphenyl)sulfonamido)-1-phenylbutan-2-yl)-N^3-methyl-N^3-((2-methylthiazol-4-yl)methyl)isophthalamide]",fold improvement in antiviral assay with respect to 3b,HIV-1 LAI,over 20 fold
same,fold enhanced protease inhibitory activity over 3c,HIV-1 protease; relative to 3c,5 fold
"COc1ccc(S(=O)(=O)N(CC(C)C)C[C@@H](O)[C@H](Cc2ccccc2)NC(=O)c2cc(O)cc(C(=O)N(C)Cc3nc(C)oc3C)c2)cc1 [Inhibitor 3f, N^1-((2,5-dimethyloxazol-4-yl)methyl)-5-hydroxy-N^3-((2S,3R)-3-hydroxy-4-((N-isobutyl-4-methoxyphenyl)sulfonamido)-1-phenylbutan-2-yl)-N^1-methylisophthalamide]",fold protease inhibitory potency over methylamino analogue 3e,HIV-1 protease; relative to 3e,10 fold
"COc1ccc(S(=O)(=O)N(CC(C)C)C[C@@H](O)[C@H](Cc2ccccc2)NC(=O)c2cccc(C(=O)N3CCC[C@@H]3c3nc(C)cs3)c2)cc1 [Inhibitor 4b, N-((2S,3R)-3-hydroxy-4-((N-isobutyl-4-methoxyphenyl)sulfonamido)-1-phenylbutan-2-yl)-3-((R)-2-(4-methylthiazol-2-yl)pyrrolidine-1-carbonyl)benzamide]",fold improved potency over (S) counterpart 4a,HIV-1 protease; relative to 4a,over 100 fold
"COc1ccc(S(=O)(=O)N(CC(C)C)C[C@@H](O)[C@H](Cc2ccccc2)NC(=O)c2cccc(C(=O)N3CCC[C@@H]3c3nc(C)co3)c2)cc1 [Inhibitor 4h, N-((2S,3R)-3-hydroxy-4-((N-isobutyl-4-methoxyphenyl)sulfonamido)-1-phenylbutan-2-yl)-3-((R)-2-(4-methyloxazol-2-yl)pyrrolidine-1-carbonyl)benzamide]",fold improved antiviral profile with respect to 4g,HIV-1 LAI; relative to 4g,10 fold
